# Calls of active or inactive are those of the source.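 Rule for the calls: active = compounds lowering nitrite signal whose fitted AC50 is at most ten times their top tested dose; inconclusive = flat drop of 30 to 70 percent, or poor curve fit; inactive = the rest.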
# Tested on: not listed separately
# Assay: suppression of NO production in INS-1E cells – cell-based, Griess absorbance, dry powder, set 2, dose response (AID 488868)
# Conditions: INS-1E cytokine-induced nitrite, Griess absorbance, 48 h; at 12 µM (top of the series)
row,Compound,"activity change, negative = inhibition"
1,C[C@@H]1CN([C@@H](C)CO)C(=O)c2cccc(NC(=O)Nc3cccc4ccccc34)c2O[C@H]1CN(C)S(=O)(=O)c1ccc2c(n1)N(C)CCO2,1.75% (inactive)
2,C[C@@H]1CN([C@H](C)CO)C(=O)c2cccc(NC(=O)Nc3ccc(F)cc3)c2O[C@H]1CN(C)S(=O)(=O)c1ccc(Cl)cc1,1.53% (inactive)
3,C[C@@H]1CN([C@@H](C)CO)C(=O)c2cccc(NC(=O)Nc3cccc4ccccc34)c2O[C@H]1CN(C)C(=O)Nc1ccccc1,11.5% (inactive)
4,Cc1ccc(S(=O)(=O)N(C)C[C@@H]2Oc3c(NC(=O)Nc4ccc(F)cc4)cccc3C(=O)N([C@H](C)CO)C[C@H]2C)cc1,-0.835% (inactive)

# Same assay, conditions: INS-1E cytokine-induced nitrite, Griess absorbance, 48 h; at 23.5 µM (top of the series)
row,Compound,"activity change, negative = inhibition"
1,COc1ccc(S(=O)(=O)N(C)C[C@@H]2Oc3c(NC(=O)C4CC4)cccc3C(=O)N([C@@H](C)CO)C[C@H]2C)cc1,1.94% (inactive)
2,COc1ccc(S(=O)(=O)N(C)C[C@@H]2Oc3c(NS(=O)(=O)c4ccc(C)cc4)cccc3C(=O)N([C@@H](C)CO)C[C@H]2C)cc1,-10.1% (inactive)
3,COc1ccc(S(=O)(=O)N(C)C[C@@H]2Oc3c(NC(=O)C4CCOCC4)cccc3C(=O)N([C@@H](C)CO)C[C@H]2C)cc1,3.17% (inactive)
4,COc1ccc(S(=O)(=O)N(C)C[C@@H]2Oc3c(NC(=O)Nc4ccc(F)cc4)cccc3C(=O)N([C@@H](C)CO)C[C@H]2C)cc1,-9.52% (inactive)
5,COc1ccc(S(=O)(=O)N(C)C[C@@H]2Oc3c(cccc3N(C)C)C(=O)N([C@@H](C)CO)C[C@H]2C)cc1,-2.44% (inactive)

# Same assay, conditions: INS-1E cytokine-induced nitrite, Griess absorbance, 48 h; at 26 µM (top of the series)
row,Compound,"activity change, negative = inhibition"
1,C[C@@H]1CN([C@@H](C)CO)C(=O)c2cccc(NC(=O)Nc3cccc4ccccc34)c2O[C@H]1CN(C)S(=O)(=O)c1cn(C)cn1,-2.87% (inactive)
2,COc1ccc(S(=O)(=O)N(C)C[C@H]2Oc3c(NC(=O)Nc4cccc5ccccc45)cccc3C(=O)N([C@@H](C)CO)C[C@@H]2C)cc1,-8.36% (inactive)
3,COc1ccc(S(=O)(=O)N(C)C[C@@H]2Oc3c(NC(=O)Nc4c(C)noc4C)cccc3C(=O)N([C@@H](C)CO)C[C@H]2C)cc1,-3.17% (inactive)
4,COc1ccc(S(=O)(=O)N(C)C[C@@H]2Oc3c(NC(=O)Nc4ccc(C(F)(F)F)cc4)cccc3C(=O)N([C@@H](C)CO)C[C@H]2C)cc1,-12% (inactive)
5,COc1ccc(S(=O)(=O)N(C)C[C@@H]2Oc3c(NC(=O)Nc4ccccc4)cccc3C(=O)N([C@@H](C)CO)C[C@H]2C)cc1,-14.9% (inactive)
6,C[C@@H]1CN([C@@H](C)CO)C(=O)c2cccc(NC(=O)Nc3cccc4ccccc34)c2O[C@H]1CN(C)S(=O)(=O)c1ccc2c(c1)oc(=O)n2C,4.7% (inactive)
7,COc1ccc(S(=O)(=O)N(C)C[C@@H]2Oc3c(NC(=O)Nc4ccc(F)cc4)cccc3C(=O)N([C@H](C)CO)C[C@H]2C)cc1,-19% (inactive)
8,COc1ccc(S(=O)(=O)Nc2cccc3c2O[C@@H](CN(C)S(=O)(=O)c2ccc(OC)cc2)[C@H](C)CN([C@@H](C)CO)C3=O)cc1,-6.55% (inactive)
9,COc1ccc(S(=O)(=O)N(C)C[C@@H]2Oc3c(NS(=O)(=O)c4ccccc4)cccc3C(=O)N([C@@H](C)CO)C[C@H]2C)cc1,0.0255% (inactive)
10,C[C@@H]1CN([C@@H](C)CO)C(=O)c2cccc(NC(=O)Nc3cccc4ccccc34)c2O[C@H]1CN(C)S(=O)(=O)c1ccc2c(c1)OCCCO2,-19.2% (inactive)
11,C[C@@H]1CN([C@H](C)CO)C(=O)c2cccc(NC(=O)Nc3ccccc3)c2O[C@H]1CN(C)S(=O)(=O)c1ccc(F)cc1,-13.8% (inactive)
12,COc1ccc(S(=O)(=O)N(C)C[C@@H]2Oc3c(NC(=O)Nc4ccc5c(c4)OCO5)cccc3C(=O)N([C@@H](C)CO)C[C@H]2C)cc1,-14.3% (inactive)
13,COc1ccc(S(=O)(=O)N(C)C[C@@H]2Oc3c(NS(C)(=O)=O)cccc3C(=O)N([C@@H](C)CO)C[C@H]2C)cc1,-7.41% (inactive)
14,COc1ccc(S(=O)(=O)N(C)C[C@@H]2Oc3c(NS(=O)(=O)c4cn(C)cn4)cccc3C(=O)N([C@@H](C)CO)C[C@H]2C)cc1,4.39% (inactive)
15,Cc1ccc(S(=O)(=O)N(C)C[C@@H]2Oc3c(NC(=O)Nc4ccccc4)cccc3C(=O)N([C@@H](C)CO)C[C@H]2C)cc1,-12.1% (inactive)
16,C[C@@H]1CN([C@@H](C)CO)C(=O)c2cccc(NC(=O)Nc3ccc(F)cc3)c2O[C@H]1CN(C)S(=O)(=O)c1ccc(F)cc1,-1.84% (inactive)
17,C[C@@H]1CN([C@@H](C)CO)C(=O)c2cccc(NC(=O)Nc3ccccc3)c2O[C@H]1CN(C)S(=O)(=O)c1ccc(F)cc1,-5.13% (inactive)
18,COc1ccc(S(=O)(=O)N(C)C[C@@H]2Oc3c(NC(=O)Nc4cccc5ccccc45)cccc3C(=O)N([C@@H](C)CO)C[C@H]2C)cc1OC,2.18% (inactive)
19,C[C@@H]1CN([C@@H](C)CO)C(=O)c2cccc(NC(=O)Nc3cccc4ccccc34)c2O[C@H]1CN(C)S(=O)(=O)c1ccc2c(c1)OCC2,-32.4% (inactive)

row,Compound,"activity change, negative = inhibition"
1,COc1ccc(S(=O)(=O)N(C)C[C@@H]2Oc3c(NC(=O)Nc4cccc5ccccc45)cccc3C(=O)N([C@@H](C)CO)C[C@@H]2C)cc1,-6.51% (inactive)
2,COc1ccc(S(=O)(=O)N(C)C[C@@H]2Oc3c(NS(=O)(=O)c4ccc(F)cc4)cccc3C(=O)N([C@@H](C)CO)C[C@H]2C)cc1,-1.11% (inactive)
3,COc1ccc(S(=O)(=O)N(C)C[C@@H]2Oc3c(NC(=O)Nc4cccc5ccccc45)cccc3C(=O)N(C(C)C)C[C@H]2C)cc1,12.7% (inactive)
4,C[C@@H]1CN([C@@H](C)CO)C(=O)c2cccc(NC(=O)Nc3ccccc3)c2O[C@H]1CN(C)S(=O)(=O)c1ccc(Cl)cc1,-5.63% (inactive)
5,COc1ccc(S(=O)(=O)N(C)C[C@H]2Oc3c(NC(=O)Nc4cccc5ccccc45)cccc3C(=O)N([C@H](C)CO)C[C@H]2C)cc1,0.786% (inactive)
6,COc1ccc(NC(=O)Nc2cccc3c2O[C@@H](CN(C)S(=O)(=O)c2ccc(OC)cc2)[C@H](C)CN([C@@H](C)CO)C3=O)cc1,-7.77% (inactive)
7,COc1ccc(S(=O)(=O)N(C)C[C@@H]2Oc3c(NC(=O)c4ccncc4)cccc3C(=O)N([C@@H](C)CO)C[C@H]2C)cc1,10% (inactive)
8,COc1ccc(S(=O)(=O)N(C)C[C@@H]2Oc3c(NC(=O)c4cnccn4)cccc3C(=O)N([C@@H](C)CO)C[C@H]2C)cc1,5.1% (inactive)
9,COc1ccc(S(=O)(=O)N(C)C[C@@H]2Oc3c(NS(=O)(=O)c4ccc(Cl)cc4)cccc3C(=O)N([C@@H](C)CO)C[C@H]2C)cc1,4.24% (inactive)
10,COc1ccc(S(=O)(=O)N(C)C[C@@H]2Oc3c(NC(=O)Nc4cccc5ccccc45)cccc3C(=O)N([C@H](C)CO)C[C@@H]2C)cc1,-1.65% (inactive)
11,C[C@@H]1CN([C@@H](C)CO)C(=O)c2cccc(NC(=O)Nc3cccc4ccccc34)c2O[C@H]1CN(C)S(C)(=O)=O,0.629% (inactive)
12,COc1ccc(S(=O)(=O)N(C)C[C@@H]2Oc3c(NC(=O)c4cc(C)nn4C)cccc3C(=O)N([C@@H](C)CO)C[C@H]2C)cc1,-1.39% (inactive)
13,Cc1ccc(S(=O)(=O)N(C)C[C@@H]2Oc3c(NC(=O)Nc4ccccc4)cccc3C(=O)N([C@H](C)CO)C[C@H]2C)cc1,-21% (inactive)
14,COc1ccc(S(=O)(=O)N(C)C[C@@H]2Oc3c(NC(=O)NC(C)C)cccc3C(=O)N([C@@H](C)CO)C[C@H]2C)cc1,6.79% (inactive)
15,C[C@H]1CN([C@@H](C)CO)C(=O)c2cccc(NC(=O)NC3CCCCC3)c2O[C@@H]1CN(C)S(C)(=O)=O,-3.58% (inactive)
16,C[C@@H]1CN([C@@H](C)CO)C(=O)c2cccc(NC(=O)Nc3cccc4ccccc34)c2O[C@H]1CN(C)S(=O)(=O)c1ccc2ncsc2c1,-14.4% (inactive)
17,COc1ccc(S(=O)(=O)N(C)C[C@H]2Oc3c(NC(=O)Nc4cccc5ccccc45)cccc3C(=O)N([C@H](C)CO)C[C@@H]2C)cc1,-26.2% (inactive)
18,COc1ccc(S(=O)(=O)N(C)C[C@@H]2Oc3c(NC(=O)c4ccc(-c5nccs5)cc4)cccc3C(=O)N([C@@H](C)CO)C[C@H]2C)cc1,-0.0778% (inactive)
19,COc1ccc(S(=O)(=O)N(C)C[C@@H]2Oc3c(NC(=O)C4CCCCC4)cccc3C(=O)N([C@@H](C)CO)C[C@H]2C)cc1,1.58% (inactive)

# Tested on: INS-1E cytokine-induced nitrite, Griess absorbance, 48 h
# Assay: as above
# Conditions: not given
row,Compound,AC50
1,COc1ccc(S(=O)(=O)N(C)C[C@@H]2Oc3c(NC(=O)Nc4ccccc4)cccc3C(=O)N([C@H](C)CO)C[C@H]2C)cc1,> 26 µM (inactive)
2,C[C@@H]1CN([C@@H](C)CO)C(=O)c2cccc(NC(=O)Nc3cccc4ccccc34)c2O[C@H]1CN(C)S(=O)(=O)c1ccc2c(c1)OCCO2,> 26 µM (inactive)

# Source: PubChem BioAssay AID488868 (Broad Institute, 2010)
